{"source": "paper PMC5544727", "about": "“The type IV pilus assembly ATPase PilB functions as a signaling protein to regulate exopolysaccharide production in Myxococcus xanthus” (Scientific Reports, 2017)", "assay_type_in_all_cases": "binding", "key": {"[1]": {"molecular_target": "T1, PilB^WT (T. thermophilus PilB/PilF, TtPilB) (Thermus thermophilus, UniProt Q72H73)", "T1 sequence (Q72H73 entry or part of it)": "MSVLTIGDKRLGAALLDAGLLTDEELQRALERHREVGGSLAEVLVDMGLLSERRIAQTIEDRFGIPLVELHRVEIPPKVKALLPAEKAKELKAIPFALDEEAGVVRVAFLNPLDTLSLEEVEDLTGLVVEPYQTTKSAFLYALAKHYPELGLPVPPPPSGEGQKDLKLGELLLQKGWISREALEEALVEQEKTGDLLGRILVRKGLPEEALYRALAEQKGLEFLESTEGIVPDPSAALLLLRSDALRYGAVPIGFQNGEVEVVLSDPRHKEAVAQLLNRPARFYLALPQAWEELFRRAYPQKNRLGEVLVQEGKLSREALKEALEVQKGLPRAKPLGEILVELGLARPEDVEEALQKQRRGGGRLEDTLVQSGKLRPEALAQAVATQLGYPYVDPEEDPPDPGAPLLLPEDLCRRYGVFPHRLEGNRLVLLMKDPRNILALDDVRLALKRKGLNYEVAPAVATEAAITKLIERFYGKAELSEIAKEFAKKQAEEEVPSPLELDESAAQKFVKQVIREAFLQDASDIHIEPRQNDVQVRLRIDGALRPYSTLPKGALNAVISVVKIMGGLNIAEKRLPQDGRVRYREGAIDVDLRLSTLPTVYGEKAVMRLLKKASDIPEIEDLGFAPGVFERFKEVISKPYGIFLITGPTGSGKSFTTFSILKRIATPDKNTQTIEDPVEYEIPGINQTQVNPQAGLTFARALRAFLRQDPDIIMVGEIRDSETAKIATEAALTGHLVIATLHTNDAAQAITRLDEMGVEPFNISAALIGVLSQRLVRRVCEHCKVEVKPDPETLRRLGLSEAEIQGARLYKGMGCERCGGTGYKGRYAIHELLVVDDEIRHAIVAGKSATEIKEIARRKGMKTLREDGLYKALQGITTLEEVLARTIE", "experiment": "fluorescence titration of MANT-ATP with purified protein"}, "[2]": {"molecular_target": "T2, PilB^WB (T. thermophilus PilB/PilF, TtPilB) (Thermus thermophilus, UniProt Q5SLC9, E718A)", "T2 sequence (Q5SLC9 1-889 E718A)": "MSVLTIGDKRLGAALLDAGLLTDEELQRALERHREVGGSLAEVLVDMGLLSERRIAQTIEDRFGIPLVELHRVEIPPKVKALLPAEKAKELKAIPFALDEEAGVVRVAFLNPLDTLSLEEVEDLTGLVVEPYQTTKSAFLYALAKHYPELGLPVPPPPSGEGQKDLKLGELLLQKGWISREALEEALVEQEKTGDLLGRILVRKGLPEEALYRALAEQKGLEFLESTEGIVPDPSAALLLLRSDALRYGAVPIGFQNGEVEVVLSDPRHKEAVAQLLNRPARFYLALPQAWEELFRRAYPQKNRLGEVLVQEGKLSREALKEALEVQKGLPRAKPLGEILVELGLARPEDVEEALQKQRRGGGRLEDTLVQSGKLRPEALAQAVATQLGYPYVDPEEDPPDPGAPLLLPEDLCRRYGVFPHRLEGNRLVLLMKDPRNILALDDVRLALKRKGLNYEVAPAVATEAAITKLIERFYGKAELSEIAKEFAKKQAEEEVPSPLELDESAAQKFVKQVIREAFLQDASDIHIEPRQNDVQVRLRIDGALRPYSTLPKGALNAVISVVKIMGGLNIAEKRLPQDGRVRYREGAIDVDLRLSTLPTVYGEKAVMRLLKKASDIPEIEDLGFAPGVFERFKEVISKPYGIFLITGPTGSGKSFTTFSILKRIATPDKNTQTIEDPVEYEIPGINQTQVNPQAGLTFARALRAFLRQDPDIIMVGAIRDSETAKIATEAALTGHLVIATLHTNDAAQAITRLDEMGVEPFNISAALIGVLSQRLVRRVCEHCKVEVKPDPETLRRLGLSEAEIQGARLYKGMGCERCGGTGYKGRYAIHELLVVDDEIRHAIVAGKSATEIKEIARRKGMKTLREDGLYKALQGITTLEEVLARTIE", "experiment": "fluorescence titration of MANT-ATP with purified protein"}, "[3]": {"molecular_target": "T3, PilB^WA (T. thermophilus PilB/PilF, TtPilB) (Thermus thermophilus, UniProt Q5SLC9, K654A)", "T3 sequence (Q5SLC9 1-889 K654A)": "T2 sequence (Q5SLC9 1-889 E718A) with K654A, A718E", "experiment": "fluorescence titration of MANT-ATP with purified protein"}, "[4]": {"molecular_target": "T1, PilB^WT (T. thermophilus PilB/PilF, TtPilB)", "experiment": "near-UV CD spectral shift, […] ligand"}, "[5]": {"molecular_target": "T2, PilB^WB (T. thermophilus PilB/PilF, TtPilB)", "experiment": "near-UV CD spectral shift, […] ligand"}, "[6]": {"molecular_target": "T1, PilB^WT (T. thermophilus PilB/PilF, TtPilB)", "experiment": "DSF thermal stabilization, […] ligand (no Kd)"}, "[7]": {"molecular_target": "T2, PilB^WB (T. thermophilus PilB/PilF, TtPilB)", "experiment": "DSF thermal stabilization, […] ligand (no Kd)"}, "[8]": {"molecular_target": "T3, PilB^WA (T. thermophilus PilB/PilF, TtPilB)", "experiment": "near-UV CD spectral shift (less pronounced than WT), […] ligand"}}, "note": "Residue numbers refer to the chain shown, from its start."}
{"smiles": "CNc1ccccc1C(=O)O[C@H]1[C@@H](O)[C@H](n2cnc3c(N)ncnc32)O[C@@H]1CO[P@@](=O)(O)O[P@](=O)(O)OP(=O)(O)O", "note": "(mixture of isomers) [MANT-ATP, 2′-/3′-O-(N-methylanthraniloyl) adenosine-5′-triphosphate]", "values": [{"measurement": "Kd", "setting": "[1]", "value": 0.17, "unit": "µM"}, {"measurement": "Kd", "setting": "[2]", "value": 0.19, "unit": "µM"}, {"measurement": "Kd", "setting": "[3]", "value": 1.23, "unit": "µM"}]}
{"smiles": "Nc1ncnc2c1ncn2[C@@H]1O[C@H](COP(=O)(O)OP(=O)(O)O)[C@@H](O)[C@H]1O", "note": "[ADP]", "values": [{"measurement": "near-UV CD spectral shift, 0.1 mM ligand", "setting": "[4]", "value": "The addition of ADP also shifted the spectra of PilB^WT and PilB^WB, but not that of PilB^WA"}, {"measurement": "near-UV CD spectral shift, 0.1 mM ligand", "setting": "[5]", "value": "The addition of ADP also shifted the spectra of PilB^WT and PilB^WB, but not that of PilB^WA"}]}
{"smiles": "Nc1ncnc2c1ncn2[C@@H]1O[C@H](CO[P@](=O)(O)O[P@](=O)(O)NP(=O)(O)O)[C@@H](O)[C@H]1O", "note": "[AMP-PNP, adenosine 5′-(β,γ-imido)triphosphate]", "values": [{"measurement": "DSF thermal stabilization, 0.4 mM ligand (no Kd)", "setting": "[6]", "value": "This nucleotide stabilized both PilB^WT and PilB^WB, resulting in the disappearance of the first unfolding transition"}, {"measurement": "DSF thermal stabilization, 0.4 mM ligand (no Kd)", "setting": "[7]", "value": "This nucleotide stabilized both PilB^WT and PilB^WB, resulting in the disappearance of the first unfolding transition"}]}
{"smiles": "Nc1ncnc2c1ncn2[C@@H]1O[C@H](COP(=O)(O)OP(=O)(O)OP(=O)(O)O)[C@@H](O)[C@H]1O", "note": "[ATP]", "values": [{"measurement": "near-UV CD spectral shift (less pronounced than WT), 0.1 mM ligand", "setting": "[8]", "value": "the shift for PilB^WA is less pronounced compared to those seen for the other two"}]}
